Measured values reported in patent publication US11999718B2, “Pyrazole derivatives” (Aptabio Therapeutics Inc., priority 2021, dated 2024).

Key:
IL-6 = assay: Expression of IL-6 in pancreatic cancer associated fibroblasts (ELISA); assay type: cell-based, human; settings: P.CAF cells, 48 hours treatment, FIG. 5
Method: (§1) In order to confirm the effect of the compounds of Synthetic examples of the present invention on inflammation reaction in cancer associated fibroblasts, whether the expression of IL6 and IL8 was inhibited by the compounds of Synthetic examples in pancreatic cancer associated fibroblasts (P.CAF) was observed.
(§2) After inoculating 1.5×10^5 cells in a 6 well plate and then culturing in P.CAF complete media for 48 hours, the compounds of Synthetic examples were treated by 10, 20, 30, 40, 60 and 80 μM for 48 hours according to each condition, and then the expression of IL-6 and IL-8 was confirmed by performing ELISA with Quantkine ELISA kit (R&D systems) as follows.
(§3) 100 μl of the culture solution in which the compounds of Synthetic examples were treated for 48 hours was added to the microplate strip for analysis including a 100 μl assay diluent and left at a room temperature for 2 hours and then the contents were removed, and then it was washed with 400 μl wash buffer 4 times. 200 μl of a human IL-6 or IL-8 conjugate was added and left at a room temperature for 2 hours and then the contents were removed, and then it was washed with 400 μl wash buffer 4 times. 200 μl of substrate solution was added and left at a room temperature for 20 minutes and then 50 μl of stop solution was added, and the absorbance at a wavelength of 450 nm was measured within 30 minutes to confirm the expression level of IL-6 and IL-8.

HFF-1 cells = assay: Collagen gel contraction induced by TGF-β1 in HFF-1 cells; assay type: cell-based, human; settings: HFF-1 cells in collagen gel, TGF-β1 10 ng/ml, 72 hours, FIG. 7
Excerpt: In order to confirm the effect of the compounds of Synthetic examples on differentiation of fibroblasts into myofibroblasts, the inhibitory effect of the compounds of Synthetic examples on the phenomenon of contraction of gel induced by interaction of human foreskin fibroblasts (HFF-1, ATCC) and collagen was observed.
The mixed solution of the HFF-1 cells and collagen (bovine type I collagen) prepared at a concentration of 3×10^6 cells/ml was aliquoted in a 24 well plate, respectively, and then cultured under the condition of 5% CO2, 37° C. for 1 hour to induce gel polymerization. Then, after suspending the gel attached on the plate from the plate using a spoon, a medium comprising TGF-β1 and Synthetic example compounds was added to each well. After culturing for 72 hours, the Synthetic example compounds were treated by 10, 20, 30, 40, 60 and 80 μM to measure the size of the gel, and thereby, the degree of contraction of the gel by drug treatment was confirmed.

IL-8 = assay: Expression of IL-8 in pancreatic cancer associated fibroblasts (ELISA); assay type: cell-based, human; settings: P.CAF cells, 48 hours treatment, FIG. 6
Method: as §1, §2, §3

[1] = system: HL-60 cells differentiated into neutrophil cells; assay: ROS production induced by PMA in HL-60 cells differentiated into neutrophil cells; assay type: cell-based; settings: Homo sapiens, 0.5 h; differentiated HL-60 cells, compounds 0.5 uM (0.5 mM in the source) for 30 minutes, 200 nM PMA, L-012 luminescence
Excerpt: In order to confirm the effect of the compounds of Synthetic examples on ROS production from fibroblasts and specific substrate cells, ROS production was induced by stimulation of PMA (phorbol 12-myristate 13-acetate), TGF-β1, palmitate or high concentration-glucose, or the like, in HL-60 cells differentiated into neutrophil cells by DMSO treatment, NHLF (normal human lung fibroblast, Lonza), LX-2 (human hepatic stellate cells, Sigma), ARPE19 (human retinal pigment epithelial cell, ATCC), and KEL-FIB (Keloid fibroblast, ATCC) cells, and under this condition, the inhibitory effect of ROS production of the compounds of Synthetic Examples was observed.
HL-60 cells (human leukemia cells, ATCC) were suspended in a medium containing 1.25% DMSO (RPMI+10% FBS) and cultured under the condition of 5% CO2, 37° C. for 6 days, thereby inducing differentiation into neutrophil cells. […] Then, to each well comprising the cells and drug, 200 nM PMA was treated to induce ROS production, and such ROS production was measured by observing the luminescence level of each well using 100 μM L-012.

| SMILES | IL-6 expressed in P.CAF (IL-6) | contraction of the gel induced by TGF-β1 (HFF-1 cells) | IL-8 expressed in P.CAF (IL-8) | inhibition at 0.5 µM [1] [%] |
| --- | --- | --- | --- | --- |
| CN(C1CCc2nn(-c3ccccn3)c(O)c2C1)C1CCCc2cccnc21 (centres unmarked) [Compound 33, 5-[Methyl(5,6,7,8-tetrahydroquinolin-8-yl)amino]-2-(pyridin-2-yl)-4,5,6,7-tetrahydro-2H-indazol-3-ol] | effectively inhibited | effectively inhibited | effectively inhibited | 50 to 70 |
| O=C(C1CC1)N1CCN(C2CCc3nn(-c4ccccn4)c(O)c3C2)CC1 (centres unmarked) [Compound 38, Cyclopropyl[4-(3-hydroxy-2-(pyridin-2-yl)-4,5,6,7-tetrahydro-2-indazol-5-yl)piperazin-1-yl]methanone] | effectively inhibited | effectively inhibited | effectively inhibited | > 70 |
| CN(Cc1cc2ccccc2cn1)C1CCc2nn(-c3ccccn3)c(O)c2C1 (centres unmarked) [Compound 62, 5-[(Isoquinolin-3-ylmethyl)methylamino]-2-(pyridin-2-yl)-4,5,6,7-tetrahydro-2H-indazol-3-ol] | effectively inhibited | effectively inhibited | effectively inhibited | > 70 |
| CN(Cc1ccc2ncccc2c1)C1CCc2nn(-c3ccccn3)c(O)c2C1 (centres unmarked) [Compound 63, 5-[Methyl(quinolin-6-ylmethyl)amino]-2-(pyridin-2-yl)-4,5,6,7-tetrahydro-2H-indazol-3-ol] | effectively inhibited | effectively inhibited | effectively inhibited | > 70 |
| COc1cccc(CN(C)C2CCc3nn(-c4ccccn4)c(O)c3C2)c1 (centres unmarked) [Compound 13, 5-[(3-Methoxybenzyl)methylamino]-2-(pyridin-2-yl)-4,5,6,7-tetrahydro-2H-indazol-3-ol] |  | effectively inhibited |  | > 70 |
| Oc1c2c(nn1-c1ccccn1)CCC(N1CCCCC1)C2 (centres unmarked) [Compound 14, 5-Piperidin-1-yl-2-(pyridin-2-yl)-4,5,6,7-tetrahydro-2H-indazol-3-ol] |  | effectively inhibited |  | 50 to 70 |
| CN(Cc1ccc(F)cc1F)C1CCc2nn(-c3ccccn3)c(O)c2C1 (centres unmarked) [Compound 5, 5-[(2,4-Difluorobenzyl)methylamino]-2-(pyridin-2-yl)-4,5,6,7-tetrahydro-2H-indazol-3-ol] | effectively inhibited | effectively inhibited | effectively inhibited | > 70 |
| CN(Cc1cccc(S(C)(=O)=O)c1)C1CCc2nn(-c3ccccn3)c(O)c2C1 (centres unmarked) [Compound 23, 5-[Methyl(3-methylsulfonylbenzyl)amino]-2-(pyridin-2-yl)-4,5,6,7-tetrahydro-2H-indazol-3-ol] | effectively inhibited | effectively inhibited | effectively inhibited | 50 to 70 |
| Cc1ccc(CN(C)C2CCc3nn(-c4ccccn4)c(O)c3C2)cc1 (centres unmarked) [Compound 24, 5-[Methyl-(4-methylbenzyl)amino]-2-(pyridin-2-yl)-4,5,6,7-tetrahydro-2H-indazol-3-ol] |  |  |  | 30 to 50 |
